Test results reported in patent US12643884B2, “1-(2-(4-cyclopropyl-1H-1,2,3-triazol-1-yl)acetyl)-4-hydroxypyrrolidine-2-carboxa|mide derivatives as VHL inhibitors for the treatment of anemia” (Genentech, Inc., priority 2020, dated 2026).

Legend:
[1] = target: T1, VHL (Homo sapiens, UniProt P40337); assay: VHL nanoBRET (+Digitonin); assay type: cell-based
T1 construct: expressed in transfected cells

[2] = target: T2, NanoLuc VHL fusion protein stably expressed in HEK 293 cells (Homo sapiens, UniProt P40337); assay: VHL HEK-293 BRET Assay (VHL NanoBRET Target Engagement Assay); assay type: cell-based; details: for IC50: HEK293 cells, nanoBRET, geometric mean where more than one measurement, read-out: VHL binding in cells (HEK293 nanoBRET); for Ratio cell permeability shift: ratio of nanoBRET in cells to nanoBRET +Digitonin
T2 construct: expressed in transfected cells
Protocol: The VHL NanoBRET™ Target Engagement Assay analyzes the apparent affinity of test compounds for VHL in cells by competitive displacement of a VHL NanoBRET™ tracer reversibly bound to a NanoLuc® VHL fusion protein stably expressed in the cells.
Test compounds were transferred to the assay plate (384 Well White Non-Binding Corning Assay Plates (Corning-3574)) using an Echo 555 Liquid Handler (Labcyte) in 2.5 nL increments and, as appropriate, intermediate stock concentrations of compounds, in order to prepare a titration series. 50 nL of control compound (10 mM; parental unlabeled VHL antagonist; see structure below) and 50 nL of DMSO (negative control) were dispensed into the appropriate control wells. DMSO was backfilled to a final volume of 50 nL as required. 50 nl per well of 1 mM VHL NanoBRET™ Tracer in DMSO (NanoBRET™ Tracer-PEG2-590 (see structure below)) was transferred into each well using an Echo 555 (ultimately yielding a final concentration of 1 uM). HEK 293 RT VHL-NanoLuc® stable cells were cultured in DMEM High Glucose with Pyruvate, 10% fetal bovine serum, 2 mg/mL of Geneticin Selective Antibiotic (50 mg/ml) and 2 mM HEPES (1 M). Cells were seeded in Opti-MEM (Life Technologies-11058-021), 1.7×10^5 cells/mL, 40 μl per well into the assay plate, centrifuged at 500 rpm for 30 seconds and incubated for 2 hours. Max Signal control wells consisted of DMSO only treated wells. Minimum Signal control wells contained of 10 uM parental unlabeled VHL antagonist (control compound—see structure below). 3× Complete Substrate plus Inhibitor Solution was prepared in Opti-MEM (consists of a 1:166 dilution of NanoBRET™ Nano-Glo® Substrate plus a 1:500 dilution of Extracellular NanoLuc® Inhibitor in Opti-MEM), and 20 ul was dispensed into each well of the 384-well plate and centrifuged at 1000 rpm for 1 minute, then incubated for 2 minutes at room temperature. Background Signal control wells were prepared without tracer for background correction steps.
Plates were read using a PerkinElmer Envision Reader (model 2104-0020) equipped with Luminescence option (Mirror: BRET2 Enh (PE Barcode 659), Emission Filter: Omega 610LP (Barcode 504), 2nd Emission Filter: Umbelliferone 460 (Barcode 207), Measurement height: 6.5 mm, Measurement time: 1 s). The raw BRET ratio values were calculated by dividing the acceptor emission value (610 nm) by the donor emission value (460 nm) for each sample. To correct for background, the BRET ratio in the absence of tracer (average of no-tracer control samples) was subtracted from the BRET ratio of each sample. Raw BRET units were converted to milliBRET units (mBU) by multiplying each raw BRET value by 1,000. The normalized NanoBRET™ signal was calculated relative to the Max Signal control wells (DMSO treated control wells) and the Minimum Signal control wells. Percentage inhibition was calculated relative to the Minimum Signal control and Maximum Signal control wells. IC50 values were derived by four parameter curve fitting using the Robust method.

[3] = target: T3, VHL Elongin B/C complex (Homo sapiens, UniProt P40337); assay: Fluorescence Polarization (FP) VHL Binding Assay; details: fluorescence polarization tracer competition; geometric mean where more than one measurement
T3 construct: amino acids E55-D213 of human VHL; His6 (N); TEV-protease cleavage site (N); made in house; host or cells: E. coli
Protocol: The binding of test compounds to the VHL Elongin B/C complex is measured using a fluorescence polarization tracer competition assay. The VHL/Elongin B/C protein complex used in the assay is generated as follows. The coding region for amino acids E55-D213 of human VHL with N-terminal His6 tag with a TEV-protease cleavage site is co-expressed with Elongin B (residues M1-Q118) and Elongin C (Residues M17-C112) in E. coli. The VHL/Elongin B/C complex is purified using an affinity nickel column, anion exchange HiTrap QP HP column chromatography, and gel filtration using a Superdex 75 26/60 column. […] A VHL fluorescence polarization probe consists of a VHL ligand coupled to carboxytetramethylrhodamine (TAMRA); (2S,4R)—N-(2-(2-(3′,6′-bis(dimethylamino)-3-oxo-3H-spiro[isobenzofuran-1,9′-xanthene]-5-carboxamido)ethoxy)-4-(4-methylthiazol-5-yl)benzyl)-4-hydroxy-1-((R)-3-methyl-2-(3-methylisoxazol-5-yl)butanoyl)pyrrolidine-2-carboxamide. […] A “pre-assay” fluorescence measurement is made using an Infinite® M1000 (Tecan) plate reader (Excitation 530 nm, Emission 574 nm, Bandwidth 10 nm). […] “Post-assay” fluorescence polarization measurements are made as described for the “pre-assay” fluorescence measurement. […] The data are analyzed using Genedata Screener software and normalized to the “no VHL control” and “VHL control” (without compound). […]

T2 sequence (P40337 whole entry, the tested form may be a part): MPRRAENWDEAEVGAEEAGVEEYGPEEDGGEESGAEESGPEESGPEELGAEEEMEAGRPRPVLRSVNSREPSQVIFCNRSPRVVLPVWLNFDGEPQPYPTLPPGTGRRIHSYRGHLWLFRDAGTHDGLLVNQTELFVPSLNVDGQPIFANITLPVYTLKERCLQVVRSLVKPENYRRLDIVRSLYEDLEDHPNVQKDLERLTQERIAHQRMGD
T2 sequence (Q15370 whole entry partner, the tested form may be a part): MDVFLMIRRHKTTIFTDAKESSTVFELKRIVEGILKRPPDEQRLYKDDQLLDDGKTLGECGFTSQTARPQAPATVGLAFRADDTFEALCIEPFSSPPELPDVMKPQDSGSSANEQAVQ
T2 sequence (Q15369 whole entry partner, the tested form may be a part): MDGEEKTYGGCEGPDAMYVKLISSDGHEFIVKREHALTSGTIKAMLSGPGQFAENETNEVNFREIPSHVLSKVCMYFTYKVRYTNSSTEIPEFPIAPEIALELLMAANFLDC
T1 sequence (P40337 whole entry): as the sequence (P40337 whole entry, the tested form may be a part) above
T1 sequence (Q15370 whole entry partner): as the sequence (Q15370 whole entry partner, the tested form may be a part) above
T1 sequence (Q15369 whole entry partner): as the sequence (Q15369 whole entry partner, the tested form may be a part) above
T3 sequence (P40337 55-213): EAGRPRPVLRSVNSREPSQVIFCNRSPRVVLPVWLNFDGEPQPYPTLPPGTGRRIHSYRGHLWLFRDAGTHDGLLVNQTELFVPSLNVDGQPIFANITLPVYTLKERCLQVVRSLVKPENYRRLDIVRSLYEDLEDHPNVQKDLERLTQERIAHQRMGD
T3 sequence (Q15370 whole entry partner, the tested form may be a part): as the sequence (Q15370 whole entry partner, the tested form may be a part) above
T3 sequence (Q15369 17-112 partner limits assumed): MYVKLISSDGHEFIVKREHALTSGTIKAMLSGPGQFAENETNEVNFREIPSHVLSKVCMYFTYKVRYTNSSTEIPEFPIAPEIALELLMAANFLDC

Which results are given for `CC(C)(C)[C@@H](C(=O)N1C[C@H](O)C[C@H]1C(N)=O)n1cc(C2CC2)nn1` [Final product from Example S1, (2S,4R)-1-((S)-2-(4-cyclopropyl-1H-1,2,3-triazol-1-yl)-3,3-dimethylbutanoyl)-4-hydroxypyrrolidine-2-carboxamide]?
EC50 [1]: 2140 nM; IC50 [2]: 2000 nM; Ratio cell permeability shift [2]: 1.71; IC50 [3]: 1170 nM

`CNC(=O)[C@@H]1C[C@@H](O)CN1C(=O)[C@H](C(C)C)n1cc(-c2cccs2)nn1` [Final product from Example S28, (2S, 4R)-4-hydroxy-N-methyl-1-((S)-3-methyl-2-(4-(thiophen-2-yl)-1H-1,2,3-triazol-1-yl)butanoyl)pyrrolidine-2-carboxamide] was tested. Which EC50 [1] did it give?
Its EC50 is 790 nM.

And the IC50 [2]?
The IC50 was 590 nM.

What about the “Ratio cell permeability shift” value [2] of the same compound?
The value was 0.75.

Which results are given for `CNC(=O)[C@@H]1C[C@@H](O)CN1C(=O)[C@H](C(C)C)n1cc(-c2cnco2)nn1` [Final product from Example S32, (2S, 4R)-4-hydroxy-N-methyl-1-[(2S)-3-methyl-2-(4-oxazol-5-yltriazol-1-yl)butanoyl]pyrrolidine-2-carboxamide]?
EC50 [1]: 2120 nM; IC50 [2]: 3200 nM; Ratio cell permeability shift [2]: 1.51

With `CNC(=O)[C@@H]1C[C@@H](O)CN1C(=O)[C@H](C(C)C)n1cc(-c2ccccc2)nn1` [Final product from Example S34, (2S,4R)-4-hydroxy-N-methyl-1-((S)-3-methyl-2-(4-phenyl-1H-1,2,3-triazol-1-yl)butanoyl)pyrrolidine-2-carboxamide] as the compound, how does the EC50 [1] read?
Its EC50 is 1270 nM.

And the IC50 [2]?
The IC50 was 1380 nM.

And the “Ratio cell permeability shift” value [2]?
Its value is 1.09.

Which EC50 [1] does the source give for `CNC(=O)[C@@H]1C[C@@H](O)CN1C(=O)[C@H](C(C)C)n1cc(-c2ccccn2)nn1` [Final product from Example S35, (2S,4R)-4-hydroxy-N-methyl-1-((S)-3-methyl-2-(4-(pyridin-2-yl)-1H-1,2,3-triazol-1-yl)butanoyl)pyrrolidine-2-carboxamide] here?
Its EC50 is 2010 nM.

What about the IC50 [2] of the same compound?
The IC50 was 1700 nM.

And the “Ratio cell permeability shift” value [2]?
Its value is 0.85.

Which results are given for `CNC(=O)[C@@H]1C[C@@H](O)CN1C(=O)[C@H](C(C)C)n1cc(-c2cccnc2)nn1` [Final product from Example S36, (2S,4R)-4-hydroxy-N-methyl-1-((S)-3-methyl-2-(4-(pyridin-3-yl)-1H-1,2,3-triazol-1-yl)butanoyl)pyrrolidine-2-carboxamide]?
EC50 [1]: 1010 nM; IC50 [2]: 1220 nM; Ratio cell permeability shift [2]: 1.21

For `CNC(=O)[C@@H]1C[C@@H](O)CN1C(=O)[C@H](C(C)C)n1cc(-c2ccncc2)nn1` [Final product from Example S37, (2S,4R)-4-hydroxy-N-methyl-1-((S)-3-methyl-2-(4-(pyridin-4-yl)-1H-1,2,3-triazol-1-yl)butanoyl)pyrrolidine-2-carboxamide], which EC50 [1] is on record?
Its EC50 is 1470 nM.

And the IC50 [2]?
Its IC50 is 1960 nM.

What about the “Ratio cell permeability shift” value [2] of the same compound?
The value was 1.33.

Which EC50 [1] does the source give for `CNC(=O)[C@@H]1C[C@@H](O)CN1C(=O)[C@H](C(C)C)n1cc(-c2ncccn2)nn1` [Final product from Example S38, (2S,4R)-4-hydroxy-N-methyl-1-((S)-3-methyl-2-(4-(pyrimidin-2-yl)-1H-1,2,3-triazol-1-yl)butanoyl)pyrrolidine-2-carboxamide] here?
The EC50 was 4060 nM.

What about the IC50 [2] of the same compound?
The IC50 was 13800 nM.

And the “Ratio cell permeability shift” value [2]?
The value was 3.40.

Which EC50 [1] does the source give for `CNC(=O)[C@@H]1C[C@@H](O)CN1C(=O)[C@H](C(C)C)n1cc(-c2cncnc2)nn1` [Final product from Example S39, (2S,4R)-4-hydroxy-N-methyl-1-((S)-3-methyl-2-(4-(pyrimidin-5-yl)-1H-1,2,3-triazol-1-yl)butanoyl)pyrrolidine-2-carboxamide] here?
The EC50 was 720 nM.

What about the IC50 [2] of the same compound?
The IC50 was 1690 nM.

What about the “Ratio cell permeability shift” value [2] of the same compound?
The value was 2.35.

Which results are given for `CNC(=O)[C@@H]1C[C@@H](O)CN1C(=O)[C@H](C(C)C)n1cc(-c2ccc(Cl)s2)nn1` [Final product from Example S40, (2S,4R)-1-((S)-2-(4-(5-chlorothiophen-2-yl)-1H-1,2,3-triazol-1-yl)-3-methylbutanoyl)-4-hydroxy-N-methylpyrrolidine-2-carboxamide]?
EC50 [1]: 460 nM; IC50 [2]: 570 nM; Ratio cell permeability shift [2]: 1.24

Which EC50 [1] does the source give for `CC(C)[C@@H](C(=O)N1C[C@H](O)C[C@H]1C(=O)N(C)C)n1cc(C2CC2)nn1` [Final product from Example S41, (2S,4R)-1-((S)-2-(4-cyclopropyl-1H-1,2,3-triazol-1-yl)-3-methylbutanoyl)-4-hydroxy-N,N-dimethylpyrrolidine-2-carboxamide] here?
The EC50 was 72300 nM.

What about the IC50 [2] of the same compound?
Its IC50 is 49900 nM.

And the “Ratio cell permeability shift” value [2]?
Its value is 0.69.
